Measured values taken from publication PMC7057177 (Journal of medicinal chemistry, 2019).
Blank lines part the entries; values can stand above or below the molecule they belong to.

What was measured:
MV4;11 cell line = assay: Cell growth inhibition assay; type: cell-based, human
menin protein = target: T1, menin protein (Homo sapiens, UniProt O00255); assay: Fluorescence polarization; details: for Times more potent than MIV-6 in binding to menin: FP binding assay
T1 sequence (O00255 1-610): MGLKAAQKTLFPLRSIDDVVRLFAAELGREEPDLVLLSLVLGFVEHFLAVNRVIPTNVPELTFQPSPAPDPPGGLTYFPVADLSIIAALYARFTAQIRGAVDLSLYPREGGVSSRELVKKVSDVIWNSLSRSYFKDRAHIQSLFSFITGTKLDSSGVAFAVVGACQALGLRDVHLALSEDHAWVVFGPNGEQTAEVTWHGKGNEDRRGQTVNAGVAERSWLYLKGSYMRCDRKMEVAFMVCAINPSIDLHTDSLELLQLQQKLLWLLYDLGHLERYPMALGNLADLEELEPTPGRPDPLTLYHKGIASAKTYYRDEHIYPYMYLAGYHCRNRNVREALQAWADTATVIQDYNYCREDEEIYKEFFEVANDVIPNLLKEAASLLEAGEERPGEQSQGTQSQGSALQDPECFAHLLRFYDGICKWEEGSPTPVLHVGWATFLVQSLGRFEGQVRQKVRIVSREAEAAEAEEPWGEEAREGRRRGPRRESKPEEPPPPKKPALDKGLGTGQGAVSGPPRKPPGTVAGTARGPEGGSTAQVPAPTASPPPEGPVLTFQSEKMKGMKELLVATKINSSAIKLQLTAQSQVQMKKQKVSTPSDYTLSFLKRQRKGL

Solubility comparison = type: physicochemical; details: compared with 20

Compound: CNC(=O)O[C@H]1CCC[C@@H]1[C@]1(C2CCN(CC3CN(c4ccc(S(=O)(=O)c5ccncc5)cc4)C3)CC2)CN(C)Cc2ccccc21 (mixture of isomers) [Compound 42, rac-(1S,2R)-2-((S)-2-Methyl-4-(1-((1-(4-(pyridin-4-ylsulfonyl)phenyl)azetidin-3-yl)methyl)piperidin-4-yl)-1,2,3,4-tetrahydroisoquinolin-4-yl)cyclopentyl methylcarbamate]
- Times more potent than MIV-6 in cell growth inhibition (MV4;11 cell line; MV4;11 (M-89: MV4;11 and MOLM-13)): > 100 times

Compound: N#Cc1ccc(N2CC(CN3CCC(C4(C5CCCC5)NCCc5ccccc54)CC3)C2)cc1 (stereo not drawn) [Compound 12, 4-(3-((4-(1-Cyclopentyl-1,2,3,4-tetrahydroisoquinolin-1-yl)piperidin-1-yl)methyl)azetidin-1-yl)benzonitrile]
- Times more potent than 6 in binding to menin (menin protein): 2 times
- Times more potent than MIV-6 in binding to menin (menin protein): 5 times

Compound: N#Cc1ccc(N2CCCC(CN3CCC(C4(C5CCCC5)NCCc5ccccc54)CC3)C2)cc1 (stereo not drawn) [Compound 10, 4-(3-((4-(1-Cyclopentyl-1,2,3,4-tetrahydroisoquinolin-1-yl)piperidin-1-yl)methyl)piperidin-1-yl)benzonitrile]
- Times less potent than 6 in binding to menin (menin protein): ~100 times

Compound: CNC(=O)O[C@H]1CCC[C@@H]1[C@](C#N)(c1ccccc1)C1CCN(CC2CN(c3ccc(C#N)cc3)C2)CC1 (mixture of isomers) [Compound 39, rac-(1S,2R)-2-((S)-Cyano(1-((1-(4-cyanophenyl)azetidin-3-yl)methyl)piperidin-4-yl)-(phenyl)methyl)cyclopentyl methylcarbamate]
- Factor of enhancement of cellular activity in MV4;11 relative to 31 (MV4;11 cell line): > 50
- Times more potent than 31 in binding to menin (menin protein): > 100 times

Compound: N#Cc1ccc(N2CC(CN3CCC(C(C#N)(c4ccccc4)C4CCCC4)CC3)C2)cc1 (racemic) [Compound 31, rac-4-(3-((4-(cyano(cyclopentyl)(phenyl)methyl)piperidin-1-yl)methyl)azetidin-1-yl)benzonitrile]
- Times weaker than MIV-6 in binding to menin (menin protein): 16 times

Compound: CC(=O)O[C@H]1CCC[C@@H]1[C@](C#N)(c1ccccc1)C1CCN(CC2CN(c3ccc(C#N)cc3)C2)CC1 (mixture of isomers) [Compound 35, rac-(1S,2R)-2-((S)-Cyano(1-((1-(4-cyanophenyl)azetidin-3-yl)methyl)piperidin-4-yl)(phenyl)methyl)cyclopentyl acetate]
- Times more potent than 31 in binding to menin (menin protein): 80 times

Compound: N#Cc1ccc(OCCCN2CCC(C3(C4CCCC4)NCCc4ccccc43)CC2)cc1 (stereo not drawn) [Compound 6, 4-(3-(4-(1-Cyclopentyl-1,2,3,4-tetrahydroisoquinolin-1-yl)piperidin-1-yl)propoxy)-benzonitrile]
- Times more potent than MIV-6 in binding to menin (menin protein): 2-3 times

Compound: CCCC(=O)O[C@H]1CCC[C@@H]1[C@](C#N)(c1ccccc1)C1CCN(CC2CN(c3ccc(C#N)cc3)C2)CC1 (mixture of isomers) [Compound 38, rac-(1S,2R)-2-((S)-Cyano(1-((1-(4-cyanophenyl)azetidin-3-yl)methyl)piperidin-4-yl)-(phenyl)methyl)cyclopentyl butyrate]
- Fold loss in binding affinity to menin relative to 37 (menin protein): 30 fold

Compound: N#Cc1ccc(N2CCC(N3CCC(C4(C5CCCC5)NCCc5ccccc54)CC3)CC2)cc1 (stereo not drawn) [Compound 9, 4-(4-(1-Cyclopentyl-1,2,3,4-tetrahydroisoquinolin-1-yl)-[1,4'-bipiperidin]-1'-yl)benzonitrile]
- Times less potent than 6 in binding to menin (menin protein): approximately 10 times

Continued, values first:

- IC50 (MV4;11 cell line; Homo sapiens, MV4-11, read-out: IC50 cell growth inhibition MV4;11): 400 to 1000 nM
Compound: CN1Cc2ccccc2C(C2CCCC2)(C2CCN(CC3CN(c4ccc(S(=O)(=O)c5ccncc5)cc4)C3)CC2)C1 (stereo not drawn) [Compound 23, 4-Cyclopentyl-2-methyl-4-(1-((1-(4-(pyridin-4-ylsulfonyl)phenyl)azetidin-3-yl)methyl)piperidin-4-yl)-1,2,3,4-tetrahydroisoquinoline]

- Times more potent than 21 in binding to menin (menin protein): 2-3 times
Compound: O=S(=O)(c1ccncc1)c1ccc(N2CC(CN3CCC(C4(C5CCCC5)CNCc5ccccc54)CC3)C2)cc1 (stereo not drawn) [Compound 22, 4-Cyclopentyl-4-(1-((1-(4-(pyridin-4-ylsulfonyl)phenyl)azetidin-3-yl)methyl)piperidin-4-yl)-1,2,3,4-tetrahydroisoquinoline]

- Times less potent than 14 in binding to menin (menin protein): 2 times
- Times more potent than 13 in binding to menin (menin protein): 2 times
Compound: CC(C)S(=O)(=O)c1ccc(N2CC(CN3CCC(C4(C5CCCC5)NCCc5ccccc54)CC3)C2)cc1 (stereo not drawn) [Compound 15, 1-Cyclopentyl-1-(1-((1-(4-(isopropylsulfonyl)phenyl)azetidin-3-yl)methyl)piperidin-4-yl)-1,2,3,4-tetrahydroisoquinoline]

- Times more potent than 15 in binding to menin (menin protein): 2-3 times
Compound: O=S(=O)(c1ccc(N2CC(CN3CCC(C4(C5CCCC5)NCCc5ccccc54)CC3)C2)cc1)C1CC1 (stereo not drawn) [Compound 16, 1-Cyclopentyl-1-(1-((1-(4-(cyclopropylsulfonyl)phenyl)azetidin-3-yl)methyl)piperidin-4-yl)-1,2,3,4-tetrahydroisoquinoline]

- Relative solubility (Solubility comparison): more soluble than 20
Compound: O=S(=O)(c1ccncc1)c1ccc(N2CC(CN3CCC(C4(C5CCCC5)NCCc5ccccc54)CC3)C2)cc1 (stereo not drawn) [Compound 21, 1-Cyclopentyl-1-(1-((1-(4-(pyridin-4-ylsulfonyl)phenyl)azetidin-3-yl)methyl)piperidin-4-yl)-1,2,3,4-tetrahydroisoquinoline]

- Times less potent than 12 in binding to menin (menin protein): 4 times
Compound: CS(=O)(=O)c1ccc(N2CC(CN3CCC(C4(C5CCCC5)NCCc5ccccc54)CC3)C2)cc1 (stereo not drawn) [Compound 13, 1-Cyclopentyl-1-(1-((1-(4-(methylsulfonyl)phenyl)azetidin-3-yl)methyl)piperidin-4-yl)-1,2,3,4-tetrahydroisoquinoline]
